Results as given in publication PMC9260081, “Design, Synthesis, and Evaluation of Anticonvulsant Activities of New Triazolopyrimidine Derivatives” (Frontiers in Chemistry, 2022).
Where two headings read alike, the source gives them in different places.

Experiments:
PTZ-induced seizures = assay: Subcutaneous pentylenetetrazole (PTZ) test; assay type: in vivo, mice; conditions: Mus musculus, ip, mice, dosages 30, 100, 300 mg/kg, read-out: PTZ screening, minimum dose whereby bioactivity was demonstrated in half or more of the mice
Experimental: (§1) Male Kunming mice with weights from 18 to 22 g were used in all the pharmacological experiments. The mice were housed in the standard cages with 10 each, where a controlled temperature (25°C ± 2°C) with a 12 h light/dark cycle was maintained. All animals had free access to food and water. All experiments and procedures involving animals were carried out according to the Guide for the Care and Use of Laboratory Animals (National Academies Press, Washington, D.C., United States). Approval from the local medical ethical committee was obtained before the experiment.
In the PTZ test, mice were subcutaneously administered with PTZ at the dose of 85 mg/kg. At this dose, mice can be elicited a threshold seizure characterized by an episode of clonic spasms and tonic spasms. After being treated with test compounds at doses of 300, 100, and 30 mg/kg, the mice were considered protected if a single episode of clonic spasms of more than 5 s duration was not obtained. The quantitative anticonvulsant activity (ED50) in the PTZ model was determined and calculated with the same method described in the MES test.

[1] = tested on: ability to maintain equilibrium on rotating rod; assay: Neurotoxicity screening (rotarod test); assay type: in vivo; conditions: i.p., dosages 30, 100, 300 mg/kg
Experimental: as §1
The rotarod test was used to evaluate the neurotoxicity of the synthesized compounds. Before the formal experiments, mice were trained to climb on a rotating rod of diameter 3.2 cm with the rotation speed of 10 rpm. Test compounds in the three doses were intraperitoneally injected into the trained mice. […] The rough neurotoxic dose was obtained in which mice cannot maintain equilibrium on the rod for at least 1 min. The quantitative neurotoxic dose (TD50) of the test compounds was measured and calculated with the same method described in the MES test.

MES-induced seizures = assay: Maximal electroshock seizure (MES) test; assay type: in vivo, mice; conditions: Mus musculus, ip, mice, dosages 30, 100, 300 mg/kg, read-out: MES screening, minimum dose whereby bioactivity was demonstrated in half or more of the mice
Experimental: as §1
In the MES test, mice were subjected to ear stimulation using a 0.2 s 60-Hz 50-mA alternating current to elicit seizures. Tonic hind limb extension was considered as the seizure occurring, and the vanishing of tonic hind limb extension indicates the protection against the MES-induced seizures. Mice were injected intraperitoneally with test compounds at doses of 300, 100, and 30 mg/kg to evaluate their general anticonvulsant activity. Half and 4 h intervals were chosen to test the anti-MES activity. […] A series of doses of the tested compounds were injected into the mice with 10 in one group.

## Clc1ccccc1-c1ccnc2ncnn12 [Compound 3c, 7-(2-Chlorophenyl)-[1,2,4]triazolo[1,5-a]pyrimidine]
PTZ-induced seizures; 0.5 h after injection
  minimal effective dose: 100 mg/kg
PTZ-induced seizures; 4 h after injection
  minimal effective dose: > 300 mg/kg
other
  melting point: 148 to 149 °C
[1]; 0.5 h after injection
  NT screening (rotarod), minimum neurotoxic dose in half or more of the mice: — (A dash indicates the absence of anticonvulsant activity and neurotoxicity at the maximum dose administered (300 mg/kg))
[1]; 4 h after injection
  NT screening (rotarod), minimum neurotoxic dose in half or more of the mice: — (A dash indicates the absence of anticonvulsant activity and neurotoxicity at the maximum dose administered (300 mg/kg))
MES-induced seizures; 0.5 h after injection
  minimal effective dose: 100 mg/kg
MES-induced seizures; 4 h after injection
  minimal effective dose: > 300 mg/kg
